Consider 31 compounds from the supplement of paper PMC11616607.

The test system of the first assay is COV318. Kind of assay: drug sensitivity score (DSS) from 5-point dose-response viability curve (DSS (area-under-curve based score)); higher = more sensitive (stronger growth inhibition or killing); extreme values may be limits of the assay. Conditions: exposure time: 72 h; concentration range: 5 concentrations over 10,000-fold range. The gist of the method:
(§1)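 For the drug sensitivity score, obtained per cell line and drug in Breeze software, larger values mean greater sensitivity. No response corresponds to a score of zero. Ovarian cancer and normal ovarian cells were seeded at 1,500 per well into 384-well plates already holding acoustically dispensed drugs (Echo 550, DMSO or water, five concentrations over a 10,000-fold range) and incubated 3 days at 37°C, 5% CO2. CellTiter-Glo luminescence on a PHERAstar FS gave the viability readout.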
Turning to `O=C(c1ccc(C(=O)N2CCC(N3CCCC3)CC2)c(Nc2ccccc2)c1)N1CCC(N2CCCC2)CC1` [UNC1215], the drug sensitivity score worked out at 0. The same measure, in the same setting: the result for `CCCCNc1ncc(C(=O)NCc2ccc(-n3ccnc3)cc2)c(NC2CCC(O)CC2)n1` (configuration not stated) [UNC2881] reads 0.

The compound `NC(=O)c1cccc(-c2cccc(OC(=O)NC3CCCCC3)c2)c1` [URB597] gave a drug sensitivity score of 0. Still for that read-out and setting: the result for `CC(C)Nc1cc(-c2c[nH]c(C(=O)N[C@H](CO)c3cccc(Cl)c3)c2)c(Cl)cn1` [Ulixertinib] reads 0.9; that for `CC[C@@H]1CN(C(=O)NCC(F)(F)F)C[C@@H]1c1cnc2cnc3[nH]ccc3n12` [Upadacitinib], 2.1; that for `Cn1ncc(Cl)c1-c1cc(C(=O)N[C@H](CN)Cc2ccc(F)c(F)c2)oc1Cl` [Uprosertib], 0.4. The compound `CS(=O)(=O)c1ccc(-c2cnc(N)c(C(=O)Nc3ccccc3)n2)cc1` [VE-821] displayed a drug sensitivity score of 0. Still for that read-out and setting: the result for `O=C(O)CC1CC(c2ccccc2)=NO1` (configuration not stated) [VGX-1027] reads 0; that for `C=CC(=O)N1CC/C(=C\c2ccc(F)c([N+](=O)[O-])c2)C(=O)/C(=C/c2ccc(F)c([N+](=O)[O-])c2)C1` [VLX1570], 12.2. In turn, `CNC(=O)c1ccccc1Nc1cc(Nc2ccc(N3CCOCC3)cc2OC)ncc1C(F)(F)F` [VS-4718] had a drug sensitivity score of 5.6. On the same count and under the same terms, with `CCCC(CCC)C(=O)O` [Valproic acid] the figure was 0; with `CCCCC(=O)OCC(=O)[C@]1(O)Cc2c(O)c3c(c(O)c2[C@@H](O[C@H]2C[C@H](NC(=O)C(F)(F)F)[C@H](O)[C@H](C)O2)C1)C(=O)c1c(OC)cccc1C3=O` [Valrubicin], 4.4; with `COc1cc2/c(=N/c3ccc(Br)cc3F)nc[nH]c2cc1OCC1CCN(C)CC1` [Vandetanib], 0.6. Same read-out and setting: with `CCc1c(C(=O)C(N)=O)c2c(OCC(=O)O)cccc2n1Cc1ccccc1` [Varespladib] the figure was 0; with `C[C@@H]1COC(Nc2ccc3ncnc(Nc4ccc(OCc5nccs5)c(Cl)c4)c3c2)=N1` [Varlitinib], 0; with `Clc1ccc(Nc2nnc(Cc3ccncc3)c3ccccc23)cc1` [Vatalanib], 0.

A further assay has as its system COV362. The description is as above. To be noted: exposure time: 72 h; concentration range: 5 concentrations over 10,000-fold range. An outline of the steps:
as §1
`CN(C)CCOc1ccc(/C(=C(/CCCl)c2ccccc2)c2ccccc2)cc1` [Toremifene] had a drug sensitivity score of 0.6. Still for that read-out and setting: the result for `CC(C)C[C@@H](C(=O)N[C@H](C(=O)OC1CCCC1)c1ccccc1)[C@H](O)C(=O)NO` [Tosedostat] reads 0; that for `Cc1cc(Nc2cc(N3CCN(C)CC3)nc(Sc3ccc(NC(=O)C4CC4)cc3)n2)n[nH]1` [Tozasertib], 1.6. Turning to `CC(=O)Nc1cccc(-n2c(=O)n(C3CC3)c(=O)c3c(Nc4ccc(I)cc4F)n(C)c(=O)c(C)c32)c1` [Trametinib], the drug sensitivity score stood at 4.9. On the same count and under the same terms, with `CC1=C(/C=C/C(C)=C/C=C/C(C)=C/C(=O)O)C(C)(C)CCC1` [Tretinoin] the figure was 0; with `NC(=S)N/N=C/c1ncccc1N` [Triapine], 0.5. Compound `O=c1[nH]c(=O)n([C@H]2C[C@H](O)[C@@H](CO)O2)cc1C(F)(F)F` [Trifluridine] displayed a drug sensitivity score of 0. Take `O=C(CCCCCCC(=O)Nc1ccc([C@H]2O[C@@H](CSc3nc(-c4ccccc4)c(-c4ccccc4)o3)C[C@@H](c3ccc(CO)cc3)O2)cc1)NO` [Tubacin]: the drug sensitivity score is 0.7. Turning to `CN1CCc2c(c3ccccc3n2Cc2ccc(C(=O)NO)cc2)C1` [Tubastatin A], the drug sensitivity score stood at 1.7.

Compound `Cc1cc(Nc2ncnc3ccc(NC4=NC(C)(C)CO4)cc23)ccc1Oc1ccn2ncnc2c1` [Tucatinib] yielded a drug sensitivity score of 0.

On to `Nc1cc(F)ccc1NC(=O)c1ccc(CNC(=O)/C=C/c2cccnc2)cc1` [Tucidinostat], for which the drug sensitivity score was 0.

On to `CN[C@@H]1C[C@H]2O[C@@](C)([C@@H]1OC)n1c3ccccc3c3c4c(c5c6ccccc6n2c5c31)C(=O)N[C@H]4O` [UCN-01], for which the drug sensitivity score came out at 17.8. With `COC(=O)c1ccc2c(c1)[nH]c1ncnc(NCCCN3CCCCC3)c12` [UM729], the drug sensitivity score turned out to be 0. The same measure, in the same setting: with `COc1cc2c(NC3CCN(C(C)C)CC3)nc(C3CCCCC3)nc2cc1OCCCN1CCCC1` [UNC0638] the figure was 4.1.

For `COc1cc2c(NC3CCN(C(C)C)CC3)nc(N3CCC(F)(F)CC3)nc2cc1OCCCN1CCCC1` [UNC0642], the drug sensitivity score amounted to 0.9.

In turn, `O=C(c1ccc(C(=O)N2CCC(N3CCCC3)CC2)c(Nc2ccccc2)c1)N1CCC(N2CCCC2)CC1` [UNC1215] returned a drug sensitivity score of 0. Still for that read-out and setting: the result for `CCCCNc1ncc(C(=O)NCc2ccc(-n3ccnc3)cc2)c(NC2CCC(O)CC2)n1` (configuration not stated) [UNC2881] reads 0; that for `NC(=O)c1cccc(-c2cccc(OC(=O)NC3CCCCC3)c2)c1` [URB597], 0; that for `CC(C)Nc1cc(-c2c[nH]c(C(=O)N[C@H](CO)c3cccc(Cl)c3)c2)c(Cl)cn1` [Ulixertinib], 1.9. Turning to `CC[C@@H]1CN(C(=O)NCC(F)(F)F)C[C@@H]1c1cnc2cnc3[nH]ccc3n12` [Upadacitinib], the drug sensitivity score is 0.2. Still for that read-out and setting: the result for `Cn1ncc(Cl)c1-c1cc(C(=O)N[C@H](CN)Cc2ccc(F)c(F)c2)oc1Cl` [Uprosertib] reads 0. The same measure, in the same setting: with `CS(=O)(=O)c1ccc(-c2cnc(N)c(C(=O)Nc3ccccc3)n2)cc1` [VE-821] the figure was 0.

Take `O=C(O)CC1CC(c2ccccc2)=NO1` (configuration not stated) [VGX-1027]: the drug sensitivity score stood at 0.

For the compound `C=CC(=O)N1CC/C(=C\c2ccc(F)c([N+](=O)[O-])c2)C(=O)/C(=C/c2ccc(F)c([N+](=O)[O-])c2)C1` [VLX1570], the drug sensitivity score stood at 9.4. Same read-out and setting: with `CNC(=O)c1ccccc1Nc1cc(Nc2ccc(N3CCOCC3)cc2OC)ncc1C(F)(F)F` [VS-4718] the figure was 4.1. Same read-out and setting: with `CCCC(CCC)C(=O)O` [Valproic acid] the figure was 0; with `CCCCC(=O)OCC(=O)[C@]1(O)Cc2c(O)c3c(c(O)c2[C@@H](O[C@H]2C[C@H](NC(=O)C(F)(F)F)[C@H](O)[C@H](C)O2)C1)C(=O)c1c(OC)cccc1C3=O` [Valrubicin], 2.4. On to `COc1cc2/c(=N/c3ccc(Br)cc3F)nc[nH]c2cc1OCC1CCN(C)CC1` [Vandetanib], for which the drug sensitivity score turned out to be 1.3. Same read-out and setting: the result for `CCc1c(C(=O)C(N)=O)c2c(OCC(=O)O)cccc2n1Cc1ccccc1` [Varespladib] reads 0; that for `C[C@@H]1COC(Nc2ccc3ncnc(Nc4ccc(OCc5nccs5)c(Cl)c4)c3c2)=N1` [Varlitinib], 0; that for `Clc1ccc(Nc2nnc(Cc3ccncc3)c3ccccc23)cc1` [Vatalanib], 0.
